Experimental data taken from ChEMBL document CHEMBL6127085, “Design, synthesis and evaluation of novel LpxC inhibitors containing a hydrazone moiety as Gram-negative antibacterial agents” (Eur J Med Chem, 2024).
Converted amounts (≈) assume the structure as drawn. Each block holds one compound with its values, some of them ahead of it.

What was measured:
[1] = tested on: Escherichia coli; assay: Antibacterial activity against Escherichia coli ATCC25922 assessed as reduction in bacterial growth measured after 18 to 24 hrs by CLSI protocol based method; type: functional; details: time 18-24 hrs
[2] = tested on: Pseudomonas aeruginosa; assay: Antibacterial activity against Pseudomonas aeruginosa ATCC27853 assessed as reduction in bacterial growth measured after 18 to 24 hrs by CLSI protocol based method; type: functional; details: time 18-24 hrs
[3] = tested on: Pseudomonas aeruginosa; assay: Antibacterial activity against Pseudomonas aeruginosa clinical isolate PAE22-1 assessed as reduction in bacterial growth measured after 18 to 24 hrs by CLSI protocol based method; type: functional; details: time 18-24 hrs
[4] = tested on: Klebsiella pneumoniae; assay: Antibacterial activity against Klebsiella pneumoniae ATCC700603 assessed as reduction in bacterial growth measured after 18 to 24 hrs by CLSI protocol based method; type: functional; details: time 18-24 hrs
[5] = tested on: Klebsiella pneumoniae; assay: Antibacterial activity against Klebsiella pneumoniae clinical isolate KPN+22-1 assessed as reduction in bacterial growth measured after 18 to 24 hrs by CLSI protocol based method; type: functional; details: time 18-24 hrs
[6] = tested on: Escherichia coli; assay: Potency index, ratio of CHIR-090 MIC to test compound MIC for antibacterial activity against Escherichia coli ATCC25922 assessed as reduction in bacterial growth measured after 18 to 24 hrs by CLSI protocol based method; type: functional; details: time 18-24 hrs
[7] = Metabolic stability in human liver microsomes assessed as half life at 1 uM preincubated for 5 mins followed by NADPH addition and measured after 5 to 60 mins by LC-MS analysis; type: ADME, Microsome; details: time 10-65 min
[8] = Metabolic stability in rat liver microsomes assessed as half life at 1 uM preincubated for 5 mins followed by NADPH addition and measured after 5 to 60 mins by LC-MS analysis; type: ADME, Microsome; details: time 10-65 min
[9] = Metabolic stability in mouse liver microsomes assessed as half life at 1 uM preincubated for 5 mins followed by NADPH addition and measured after 5 to 60 mins by LC-MS analysis; type: ADME, Microsome; details: time 10-65 min
[10] = Metabolic stability in human liver microsomes assessed as intrinsic clearance at 1 uM preincubated for 5 mins followed by NADPH addition and measured after 5 to 60 mins by LC-MS analysis; type: ADME, Microsome; details: time 10-65 min, read-out: CLH
[11] = Metabolic stability in rat liver microsomes assessed as intrinsic clearance at 1 uM preincubated for 5 mins followed by NADPH addition and measured after 5 to 60 mins by LC-MS analysis; type: ADME, Microsome; details: time 10-65 min
[12] = Metabolic stability in mouse liver microsomes assessed as intrinsic clearance at 1 uM preincubated for 5 mins followed by NADPH addition and measured after 5 to 60 mins by LC-MS analysis; type: ADME, Microsome; details: time 10-65 min
[13] = Intrinsic clearance in human; type: ADME; details: read-out: CLH
[14] = Intrinsic clearance in rat; type: ADME; details: read-out: CLH
[15] = Intrinsic clearance in mouse; type: ADME, organism-based; details: read-out: CLH
[16] = Plasma protein binding in mouse at 1 uM incubated for 6 hrs by LC-MS/MS analysis; type: ADME, cell-free; details: read-out: PPB (converted)
[17] = Stability in mouse plasma at 1 uM incubated for 6 hrs by LC-MS/MS analysis; type: ADME, cell-free; details: read-out: Stability
[18] = tested on: HepG2; assay: Cytotoxicity against human HepG2 cells assessed as inhibition of cell growth measured after 48 hrs by MTT assay; type: functional, cell-based; details: HepG2, 48 h
[19] = Plasma protein binding in human assessed as unbound fraction at 1 uM incubated for 6 hrs by LC-MS/MS analysis; type: ADME, cell-free
[20] = Plasma protein binding in human at 1 uM incubated for 6 hrs by LC-MS/MS analysis; type: ADME, cell-free; details: read-out: PPB
[21] = Plasma protein binding in human assessed as drug recovery at 1 uM incubated for 6 hrs by LC-MS/MS analysis; type: ADME, cell-free; details: read-out: Drug recovery
[22] = Stability in human plasma at 1 uM incubated for 6 hrs by LC-MS/MS analysis; type: ADME, cell-free; details: read-out: Stability
[23] = Plasma protein binding in rat assessed as unbound fraction at 1 uM incubated for 6 hrs by LC-MS/MS analysis; type: ADME, cell-free
[24] = Plasma protein binding in rat at 1 uM incubated for 6 hrs by LC-MS/MS analysis; type: ADME, cell-free; details: read-out: PPB (converted)
[25] = Plasma protein binding in rat assessed as drug recovery at 1 uM incubated for 6 hrs by LC-MS/MS analysis; type: ADME, cell-free; details: read-out: Drug recovery
[26] = Stability in rat plasma at 1 uM incubated for 6 hrs by LC-MS/MS analysis; type: ADME, cell-free; details: read-out: Stability
[27] = Plasma protein binding in mouse assessed as unbound fraction at 1 uM incubated for 6 hrs by LC-MS/MS analysis; type: ADME, cell-free
[28] = Plasma protein binding in mouse assessed as drug recovery at 1 uM incubated for 6 hrs by LC-MS/MS analysis; type: ADME, cell-free; details: read-out: Drug recovery
[29] = Half life in male Sprague-Dawley rat at 10 mg/kg, IG measured upto 24 hrs by LC-MS analysis; type: ADME, organism-based; details: in vivo, po
[30] = Tmax in male Sprague-Dawley rat at 10 mg/kg, IG measured upto 24 hrs by LC-MS analysis; type: ADME, organism-based; details: in vivo, po
[31] = Cmax in male Sprague-Dawley rat at 10 mg/kg, IG measured upto 24 hrs by LC-MS analysis; type: ADME, organism-based; details: in vivo, po
[32] = AUC (0 to t) in male Sprague-Dawley rat at 10 mg/kg, IG measured upto 24 hrs by LC-MS analysis; type: ADME, organism-based; details: in vivo, po
[33] = MRT (0 to t) in male Sprague-Dawley rat at 10 mg/kg, IG measured upto 24 hrs by LC-MS analysis; type: ADME, organism-based; details: in vivo, po
[34] = Oral bioavailability in male Sprague-Dawley rat at 10 mg/kg, IG measured upto 24 hrs by LC-MS analysis; type: ADME, organism-based; details: in vivo
[35] = Half life in male Sprague-Dawley rat at 1 mg/kg, iv measured upto 24 hrs by LC-MS analysis; type: ADME, organism-based; details: in vivo
[36] = AUC (0 to t) in male Sprague-Dawley rat at 1 mg/kg, iv measured upto 24 hrs by LC-MS analysis; type: ADME, organism-based; details: in vivo
[37] = Clearance in male Sprague-Dawley rat at 1 mg/kg, iv measured upto 24 hrs by LC-MS analysis; type: ADME, organism-based; details: in vivo
[38] = MRT (0 to t) in male Sprague-Dawley rat at 1 mg/kg, iv measured upto 24 hrs by LC-MS analysis; type: ADME, organism-based; details: in vivo
[39] = Volume of distribution at steady state in male Sprague-Dawley rat at 1 mg/kg, iv measured upto 24 hrs by LC-MS analysis; type: ADME, organism-based; details: in vivo, read-out: Vdss
[40] = biological target: T1, Cytochrome P450 1A2 (Homo sapiens, UniProt P05177); assay: Inhibition of CYP1A2 in human liver microsomes using alpha-naphthoflavone […] preincubated for 5 mins followed by substrate addition ande measured after 120 mins in presence of NADPH by LC-MS/MS analysis; type: ADME, Microsome
T1 sequence (P05177 whole entry): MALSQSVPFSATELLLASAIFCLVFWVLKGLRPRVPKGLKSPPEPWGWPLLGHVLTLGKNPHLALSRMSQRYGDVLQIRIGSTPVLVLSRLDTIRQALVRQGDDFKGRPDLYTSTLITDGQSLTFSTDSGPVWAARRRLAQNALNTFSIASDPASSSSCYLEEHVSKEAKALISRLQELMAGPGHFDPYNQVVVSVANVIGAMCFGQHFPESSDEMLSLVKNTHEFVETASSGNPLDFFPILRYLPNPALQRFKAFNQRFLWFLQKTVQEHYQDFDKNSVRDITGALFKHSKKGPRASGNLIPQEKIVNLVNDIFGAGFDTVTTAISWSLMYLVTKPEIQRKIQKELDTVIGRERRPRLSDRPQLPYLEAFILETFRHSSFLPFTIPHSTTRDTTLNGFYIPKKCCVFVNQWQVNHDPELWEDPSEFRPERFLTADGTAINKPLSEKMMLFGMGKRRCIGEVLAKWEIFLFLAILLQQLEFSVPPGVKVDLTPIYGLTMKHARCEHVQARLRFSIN

[41] = biological target: Cytochrome P450 2C9 (Homo sapiens, UniProt P11712); assay: Inhibition of CYP2C9 in human liver microsomes using sulfaphenazolum […] preincubated for 5 mins followed by substrate addition ande measured after 120 mins in presence of NADPH by LC-MS/MS analysis; type: ADME, Microsome
[42] = biological target: Cytochrome P450 2C19 (Homo sapiens, UniProt P33261); assay: Inhibition of CYP2C19 in human liver microsomes using nootkatone […] preincubated for 5 mins followed by substrate addition ande measured after 120 mins in presence of NADPH by LC-MS/MS analysis; type: ADME, Microsome
[43] = biological target: Cytochrome P450 2D6 (Homo sapiens, UniProt P10635); assay: Inhibition of CYP2D6 in human liver microsomes using quinidine […] preincubated for 5 mins followed by substrate addition ande measured after 120 mins in presence of NADPH by LC-MS/MS analysis; type: ADME, Microsome
[44] = biological target: Cytochrome P450 3A4 (Homo sapiens, UniProt P08684); assay: Inhibition of CYP3A4 in human liver microsomes using ketoconazole […] preincubated for 5 mins followed by substrate addition ande measured after 120 mins in presence of NADPH by LC-MS/MS analysis; type: ADME, Microsome
[45] = Solubility of the compound at pH 4.0 by LC-MS/MS analysis; type: physicochemical; details: buffer
[46] = Solubility of the compound at pH 6.8 by LC-MS/MS analysis; type: physicochemical; details: buffer
[47] = Solubility of the compound at pH 9.0 by LC-MS/MS analysis; type: physicochemical; details: buffer
[48] = liver microsomes, read-out: CLH

Sequence of Cytochrome P450 2C9 (P11712 whole entry): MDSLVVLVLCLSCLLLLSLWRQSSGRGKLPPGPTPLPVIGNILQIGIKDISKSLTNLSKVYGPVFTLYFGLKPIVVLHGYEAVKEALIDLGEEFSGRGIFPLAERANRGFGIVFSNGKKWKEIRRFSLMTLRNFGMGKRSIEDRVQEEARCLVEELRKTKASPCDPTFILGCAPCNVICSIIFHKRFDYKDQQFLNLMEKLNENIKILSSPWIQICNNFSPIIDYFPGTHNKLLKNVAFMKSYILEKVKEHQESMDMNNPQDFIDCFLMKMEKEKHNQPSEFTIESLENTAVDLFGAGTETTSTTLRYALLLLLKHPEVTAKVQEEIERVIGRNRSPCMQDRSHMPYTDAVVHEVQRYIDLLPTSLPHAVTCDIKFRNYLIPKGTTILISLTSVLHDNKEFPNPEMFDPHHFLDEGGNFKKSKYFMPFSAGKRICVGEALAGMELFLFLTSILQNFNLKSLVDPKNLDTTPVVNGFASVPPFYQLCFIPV
Sequence of Cytochrome P450 2C19 (P33261 whole entry): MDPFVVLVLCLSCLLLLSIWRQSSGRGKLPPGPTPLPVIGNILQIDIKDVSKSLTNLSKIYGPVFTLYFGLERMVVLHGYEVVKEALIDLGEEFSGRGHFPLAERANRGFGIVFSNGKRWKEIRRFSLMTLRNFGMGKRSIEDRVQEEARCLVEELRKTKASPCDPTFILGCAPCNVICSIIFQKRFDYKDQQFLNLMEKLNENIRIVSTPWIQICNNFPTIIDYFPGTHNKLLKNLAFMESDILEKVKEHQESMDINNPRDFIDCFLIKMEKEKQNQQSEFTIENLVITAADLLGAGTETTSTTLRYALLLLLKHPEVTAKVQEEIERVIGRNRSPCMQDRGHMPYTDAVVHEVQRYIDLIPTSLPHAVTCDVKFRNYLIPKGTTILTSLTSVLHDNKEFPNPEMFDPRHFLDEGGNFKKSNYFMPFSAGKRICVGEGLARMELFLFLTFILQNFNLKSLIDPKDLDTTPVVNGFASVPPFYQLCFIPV
Sequence of Cytochrome P450 3A4 (P08684 whole entry): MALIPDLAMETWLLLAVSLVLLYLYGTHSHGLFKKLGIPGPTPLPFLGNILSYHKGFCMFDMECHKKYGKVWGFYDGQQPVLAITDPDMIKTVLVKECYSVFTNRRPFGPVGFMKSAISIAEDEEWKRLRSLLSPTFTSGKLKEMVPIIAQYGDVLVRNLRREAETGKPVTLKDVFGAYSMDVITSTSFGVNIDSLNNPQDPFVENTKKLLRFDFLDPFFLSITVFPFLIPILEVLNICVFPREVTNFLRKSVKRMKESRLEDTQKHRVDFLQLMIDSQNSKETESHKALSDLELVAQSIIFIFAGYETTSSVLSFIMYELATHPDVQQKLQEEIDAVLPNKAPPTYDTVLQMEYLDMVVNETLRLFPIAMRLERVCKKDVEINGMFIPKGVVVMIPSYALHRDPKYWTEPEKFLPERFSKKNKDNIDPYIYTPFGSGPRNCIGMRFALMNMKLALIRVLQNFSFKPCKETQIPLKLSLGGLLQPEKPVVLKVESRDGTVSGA
Sequence of Cytochrome P450 2D6 (P10635 whole entry): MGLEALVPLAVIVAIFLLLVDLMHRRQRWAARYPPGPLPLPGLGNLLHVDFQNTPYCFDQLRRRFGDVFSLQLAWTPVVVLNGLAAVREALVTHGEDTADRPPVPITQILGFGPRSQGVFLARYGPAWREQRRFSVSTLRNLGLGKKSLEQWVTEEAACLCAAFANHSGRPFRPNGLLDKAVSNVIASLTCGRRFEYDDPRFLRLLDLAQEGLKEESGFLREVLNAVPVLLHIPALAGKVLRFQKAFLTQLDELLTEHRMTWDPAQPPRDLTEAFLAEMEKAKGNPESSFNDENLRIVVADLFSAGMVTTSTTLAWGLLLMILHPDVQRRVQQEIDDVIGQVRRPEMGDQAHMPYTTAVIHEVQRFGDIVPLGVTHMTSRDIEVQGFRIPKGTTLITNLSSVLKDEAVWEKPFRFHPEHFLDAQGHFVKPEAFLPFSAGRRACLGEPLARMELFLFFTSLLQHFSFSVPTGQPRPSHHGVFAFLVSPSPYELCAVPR

MIC [1]: 0.25 µg/mL (≈ 0.536 µM) | MIC [2]: > 64 µg/mL | MIC [3]: 8 µg/mL (≈ 17.1 µM) | MIC [4]: > 64 µg/mL | MIC [5]: 1 µg/mL (≈ 2.14 µM)
SMILES: C[C@@H](O)[C@H](NC(=O)c1ccc(C#Cc2ccc(/C=N/N3CCSCC3)cc2)cc1)C(=O)NO
Ratio [6]: 2

MIC [1]: 0.25 µg/mL (≈ 0.555 µM) | MIC [2]: > 64 µg/mL | MIC [3]: 1 µg/mL (≈ 2.22 µM) | MIC [4]: > 64 µg/mL | MIC [5]: 1 µg/mL (≈ 2.22 µM) | half-life at 1 µM ([7]; liver microsomes): 299 min | half-life at 1 µM ([8]; liver microsomes): 474 min | half-life at 1 µM ([9]; liver microsomes): 366 min | microsomal CLint at 1 µM [10]: 7.16 µL/min/mg | microsomal CLint at 1 µM [11, 48]: 4.53 µL/min/mg | microsomal CLint at 1 µM [12, 48]: 1.79 µL/min/mg | CLint scaled [13]: 6.76 mL/min/kg | CLint scaled [14]: 8.15 mL/min/kg | CLint scaled [15]: 7.04 mL/min/kg
SMILES: C[C@@H](O)[C@H](NC(=O)c1ccc(C#Cc2ccc(/C=N/N3CCOCC3)cc2)cc1)C(=O)NO
Ratio [6]: 2

fraction unbound at 6 h, 1 µM [16]: 0.002 | remaining at 6 h, 1 µM [17]: 111% | MIC [1]: 0.06 µg/mL (≈ 0.138 µM) | MIC [2]: > 64 µg/mL | MIC [3]: 2 µg/mL (≈ 4.6 µM) | MIC [4]: 8 µg/mL (≈ 18.4 µM) | MIC [5]: 0.25 µg/mL (≈ 0.575 µM) | t1/2 ([7]; microsomes, 1 µM): 337 min | t1/2 ([8]; microsomes, 1 µM): 4.14 min | t1/2 ([9]; microsomes, 1 µM): 3.91 min | CLH ([11]; microsomes, 1 µM): 9.76 µL/min/mg | CLH ([12]; microsomes, 1 µM): 17.6 µL/min/mg | CLint scaled [13]: 165 mL/min/kg | CLint scaled [14]: 8.59 mL/min/kg | CLint scaled [15]: 33.8 mL/min/kg | fraction unbound at 6 h, 1 µM [19]: 0.0013 | fraction unbound at 6 h, 1 µM [20]: 0.001 | recovery at 6 h, 1 µM [21]: 103% | remaining at 6 h, 1 µM [22]: 113% | fraction unbound at 6 h, 1 µM [23]: 0.0016 | fraction unbound at 6 h, 1 µM [24]: 0.002 | recovery at 6 h, 1 µM [25]: 102% | remaining at 6 h, 1 µM [26]: 109% | fraction unbound at 6 h, 1 µM [27]: 0.00232 | recovery at 6 h, 1 µM [28]: 110% | half-life [29]: 150 min | Tmax [30]: 4 h | Cmax [31]: 218 ng/mL | AUC(0-t) at 24 h [32]: 1050 ng·h/mL | MRT last at 24 h [33]: 3.41 h | bioavailability [34]: 13.3% | half-life [35]: 65.4 min | AUC(0-t) at 24 h [36]: 791 ng·h/mL | clearance [37]: 20.6 mL/min/kg | MRT last at 24 h [38]: 1.31 h | Vd [39]: 1.8 L/kg | IC50 [40]: > 30 µM | IC50 [41]: > 30 µM | IC50 [42]: > 30 µM | IC50 [43]: > 30 µM | IC50 [44]: > 30 µM | solubility [45]: 4.8 µM (≈ 2.09 µg/mL) | solubility [46]: 9.41 µM (≈ 4.09 µg/mL) | solubility [47]: 101 µM (≈ 43.9 µg/mL)
SMILES: C[C@@H](O)[C@H](NC(=O)c1ccc(C#Cc2ccc(/C=N/N3CCCC3)cc2)cc1)C(=O)NO
IC50 [18]: > 30 µM
